Article PMC6701825, “Antiproliferative and Antimigratory Effects of a Novel YAP–TEAD Interaction Inhibitor Identified Using in Silico Molecular Docking” (Journal of Medicinal Chemistry, 2019)
Entries after “also recorded” stand apart in the source; their conditions may differ. Read-outs that look alike come from different tables or passages of the source.

Experiments:
CTGF promoter = experiment: CTGF-luciferase reporter in HeLa cells; assay type: cell-based, human; conditions: 6 h, indicated concentrations
From the text: Activation of TEAD transcription factors in response to YAP binding induces the expression of many genes that encode proteins known to be involved in promoting cell proliferation and migration (see Supplement Figure 14). The best characterized TEAD target genes associated with the promotion of cell proliferation and migration are CCN1 and CTGF.[39],[59],[60] […] We therefore tested whether CPD3 inhibited the promoter activity of known TEAD target genes, CCN1 and CTGF, in the HeLa transformed cell line and primary rat VSMCs (RaVSMCs). Cells were transfected with plasmids expressing bioluminescent firefly luciferase reporter genes under the control of either the CCN1 or CTGF promoter regions. […] As both CCN1 and CTGF are classical TEAD target genes, this is consistent with the inhibition of TEAD activity by CPD3.
TNT1-minP reporter containing the Troponin-T minimal promoter was generated by digesting 8xGTIIC-luciferase plasmid (Addgene #34615) with Kpn1 and BglII to remove the TEAD elements, followed by blunt end re-ligation. A 2.177 kb fragment of the human CCN1 promoter containing two proximal TEAD elements (Hg19;chr1:86044316–chr1:86046493) was described previously[39] and cloned into pGL4-luciferase (Promega). […]

RaVSMCs = experiment: Real-time IncuCyte scratch wound migration assay in RaVSMCs; assay type: cell-based, rat
Protocol: Cell proliferation was measured using the Click-iT EdU 488 assay (Sigma-Aldrich). Briefly, the cells were treated with indicated concentrations of compounds for 24 h with the last 4 h being in the presence of 10 μM EdU. The cells were fixed in 4% formaldehyde and stained for EdU incorporation, following the kit’s standard protocol. The cells were counterstained with Hoechst 33342 nucleic acid for 20 min. Fluorescent images of at least three fields of view per well were counted using ImageJ software. Real-time analysis of cell migration was performed using an IncuCyte ZOOM live cell imaging system (Essen BioScience) according to the manufacturer’s instructions. Briefly, the cells were seeded (1.2 × 10^4 cells/well for HeLa cells, 1.5 × 10^4 cells/well for RaVSMCs, and 1 × 10^4 cells/well) into ImageLock 96-well plates. After 36 h, the cells were pretreated overnight with indicated concentrations of compounds. The wells were scratched using a WoundMaker tool, and the media were replaced containing test compounds. Phase contrast images of cell migration into the wounded area were acquired hourly for 24 h. Relative wound confluence was calculated using the Cell Migration Image analysis module of the IncuCyte ZOOM software.
Supplement Figure 5: Effect of low micromolar doses of CPD3 on rat VSMC migration.
VSMC were incubated with the indicated doses of CPD3 for 18 hours before quantification […]

HeLa cells = experiment: Live/dead cell viability assay (ethidium homodimer-1) in HeLa cells; assay type: cell-based
Protocol: Cell viability was quantified using the live/dead viability/cytotoxicity assay standard protocol (Invitrogen). Maximum cell death was quantified by incubating cells for 10 min with 0.1% Triton-X, followed by incubation with 0.4 μM ethidium homodimer-1 for an additional 10 min. Fluorescence was measured using a GloMax Discover multiplate reader (Promega).
Supplement Figure 3: Effect of shortlisted compounds on cell viability
(§1) HeLa cells transduced with TEAD-NLUC reporter were treated with indicated compounds at 100 µM for 6 hours (n=3). Cell viability was quantified by staining with 0.4 µM ethidium homodimer-1 and ethidium homodimer-1 uptake quantified by measuring fluorescence at 645 nm using a Glomax Discover plate reader.
(§2) (1 picture or pasted object on this page, not shown here)
as §1, with “Supplement Figure 6: Effect of CPD3, CPD3.1, CPD3.2 and CPD 3.3 on cell viability HeLa” for “HeLa”, “concentrations of CPD3, CPD3.1, CPD3.2 and CPD 3.3” for “compounds at 100 µM”, “plate” for “plate reader.”

nano-luciferase enzyme = molecular target: T1, nano-luciferase enzyme (Oplophorus gracilirostris, UniProt Q9GV45, A31E/A60N/A81I/F95D/I117V/K70R/L54V/L99Q/M102K/N193R/P142E/Q151K/Q38R/Q45L/V71I/Y165I); experiment: Direct inhibition of nanoluciferase enzyme in conditioned media; assay type: biochemical; conditions: conditioned media containing nano-luciferase, indicated concentrations
T1 construct: heterologous secretion signal (sec-Nluc) (N); expressed in transfected cells; probably the TEAD-NLUC HeLa reporter cells
Protocol: Cell conditioned media containing nano-luciferase enzyme was incubated with the indicated
concentrations of CPD3 (A) or CPD3.1 (B) and nano-luciferase activity assayed.
as §2

T1 sequence (Q9GV45 other isoform, or with tags, fused parts or gaps with the stated changes): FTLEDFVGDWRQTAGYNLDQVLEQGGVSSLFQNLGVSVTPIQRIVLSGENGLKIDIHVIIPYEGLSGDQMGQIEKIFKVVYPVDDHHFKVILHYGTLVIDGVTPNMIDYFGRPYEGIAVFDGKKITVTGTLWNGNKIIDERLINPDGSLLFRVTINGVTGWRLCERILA

Structure (SMILES)	CTGF-luciferase reporter gene activity (CTGF promoter)	cell migration (scratch wound) (RaVSMCs)	effect on cell viability (HeLa cells; 100 µM, 6 hours, HeLa TEAD-NLUC cells)	effect on cell viability (HeLa cells; indicated concentrations, 6 hours, HeLa (Supplement Figure 6))	direct inhibitory effect on NLUC enzymatic activity (nano-luciferase enzyme)	effect on cell viability (HeLa cells)
Cc1ccc2c(c1)c1c3n2CCN(CC(O)CN2CCN(C(=O)c4ccco4)CC2)C3CCC1 (stereo not drawn) [CPD3]	strong and significant dose-dependent inhibition	dose-dependently inhibited	without significantly affecting cell viability	did not affect cell viability	do not non-specifically inhibit nano-luciferase; also recorded: did not affect cell viability (Supplement Figure 6) or have any direct inhibitory effect on NLUC enzymatic activity	–
Cc1ccc2c(c1)c1c3n2CCNC3CCC1 (stereo not drawn) [CPD3.1]	dose-dependent inhibition	inhibited in a dose-dependent manner by 2, 10, and 20 μM CPD3.1	–	–	do not non-specifically inhibit nano-luciferase; also recorded: without having any direct inhibitory effect on NLUC activity	without affecting cell viability
